We go through four molecules from patent US5250546A, “Amino-alcohol derivatives and processes for their preparation” (Nippon Chemiphar Co., Ltd., priority 1984, dated 1993).

Data set [1] in a line: Acute toxicity, up-and-down method. Conditions: mouse, in vivo; iv (caudal vein), ddN male mice. The procedure: Using ddN male mice, the acute toxicity level of each test compound was determined in accordance with an up-and-down method. Some of the test compounds used were dissolved in physiological saline and administered through the caudal vein.
The test system of data set [2] is glutamic acid at neuromuscular junctions of crayfish (opener muscles of the first walking legs). Briefly: Blocking effects against glutamic acid at neuromuscular junctions of crayfish (L-glutamic acid-induced depolarization). The class given is cell-based. Conditions: 5 min; suppression rate of depolarization by L-glutamic acid (10^-4 M); 5-minute pretreatment with test compound 2×10^-4 M.
Description: The opener muscles of the first walking legs of crayfish were used as experimental materials. The neuromuscular sample was held in a bath in which a physiological solution [composition (mM): NaCl (195), CaCl2 (18), KCl (5.4), tris-maleate buffer (pH 7.5; 10), glucose (11)] for use with the crayfish was perfused at room temperature and at a constant flow rate. A glass micro-electrode filled with a 3M-KCl solution was inserted in a central part of the muscle fiber to intracellularly record changes in the potential of the muscular cell membrane.
The blocking effect of each test compound against glutamic acid was evaluated in terms of the suppression rate to depolarization which was induced by bath-applying L-glutamic acid (10^-4 M) in a 5-minute pretreatment with a solution of the test compound (2×10^-4 M).

Data set [3] concerns anemic decerebrate rigidity (Wistar male rats). Briefly: Effects on anemic decerebrate rigidity (EMG of M. triceps brachii). The class given is in vivo. Conditions: Rattus norvegicus, iv, 10 min; 3 mg/kg through the femoral vein; 10 minutes after administration; read-out: Suppression rate (rigidity, EMG pulse area).
Protocol: An anemic decerebrate rigidity sample was prepared principally in accordance with the procedure of Fukuda et al. [Japan. […] Wistar male rats (body weight: 270 to 350 g) were held on their backs and incised at their cervices under etherization. After the trachea and common carotid arteries were exposed, the trachea was cannulated and the bilateral common carotid arteries and esophagus were then double-ligated and cut. Thereafter, its occipital bone was exposed through which a circular hole was bored to double-ligate the centrally extending basilar artery. As each rat started coming out of anesthetization, its front limbs became rigid. Measurement was conducted by recording electromyographic (EMG) response from the muscle of the forelimb (M. triceps brachii) of the rat in the rigid state. The EMG pulses were converted to accumulated values every 10 seconds and recorded as a histogram on a recorder.
The effect of each test compound on the rigidity was evaluated in terms of the suppression rate. This rate was calculated first by determining the area of a decreased EMG pulse part on the histogram upon passage of 10 minutes after administration of a physiological saline solution of each test compound (3 mg/kg) through the femoral vein and then in accordance with the following equation.
A: EMG pulse area when no test compound was administered (control).

As for `CC(C)CC[C@H](NCCN1CCCC1)[C@H](O)c1ccccc1.Cl.Cl` (racemic) [Compound 43, (1RS,2SR)-5-methyl-1-phenyl-2-(2-pyrrolidinoethylamino)hexan-1-ol dihydrochloride], the LD50 (usually the dose expected to kill half of the subjects tested) in data set [1] was determined as 31.9 mg/kg. For the same molecule, the inhibition (as a rule, the drop in the measured response relative to a control, in per cent) at 200 µM in data set [2] turned out to be 95%. In data set [3], the inhibition in vivo at 3 mg/kg was 16.1%.

`CC(C)CC[C@H](NCCCN1CCCC1)[C@H](O)c1ccccc1.Cl.Cl` (racemic) [Compound 35, (1RS,2SR)-5-methyl-1-phenyl-2-(3-pyrrolidinopropylamino)hexan-1-ol dihydrochloride] showed an LD50 in data set [1] of 26.7 mg/kg. Also, the inhibition at 200 µM in data set [2] was 100%. Moreover, the inhibition in vivo at 3 mg/kg in data set [3] is 21.6%.

In the case of `CC(C)CC[C@H](NCCCN1CCCCCC1)[C@H](O)c1ccccc1.Cl.Cl` (racemic) [Compound 45, (1RS,2SR)-5-methyl-2-[3-(perhydroazepin-1-yl)propylamino]-1-phenylhexan-1-ol dihydrochloride], the LD50 in data set [1] is 12.8 mg/kg. Further, the inhibition at 200 µM in data set [2] amounted to 100%. The inhibition in vivo at 3 mg/kg in data set [3] was found to be 90.5%.

Regarding `CCCC[C@H](NCCCN1CCCCC1)[C@H](O)c1ccccc1.Cl.Cl` (racemic) [Compound 3, (1RS,2SR)-1-phenyl-2-(3-piperidinopropylamino)hexan-1-ol dihydrochloride], the LD50 in data set [1] worked out at 19.2 mg/kg. Also, in data set [2], the inhibition at 200 µM was determined as 99%. Also, the inhibition in vivo at 3 mg/kg in data set [3] was found to be 17.5%.
